Tests used:
[1] = tested on: adalimumab producing cell line 1; assay: Glucose consumption of the culture, cell line 1; format: cell-based
Procedure: For the bioreactor (3 L Applikon) experiments (Examples 1, 2 and 3), 3 L, bioreactors (1.5 L working volume) were initiated at 35° C. (cell line 1) and 36° C. (cell line 2), 30% DO, 200 rpm, pH of 7.1. In some of the conditions, pH was ramped down to 6.8 in three days and kept at pH 6.8 thereafter. The inclusion of pH ramp for a particular condition is indicated by the final pH in the experimental design. If the final pH is 7.1, then it indicates no pH ramp was performed, whereas if the final pH is 6.8, a pH ramp was performed on day 3 from pH 7.1 to pH 6.8. In some of the conditions, a temperature shift was performed. When temperature shift was performed, the temperature was lowered to 33° C. Again, the conditions where such a temperature shift was performed can be identified from the final temperature in the experimental design. Cultures were run in extended batch mode with the addition of a desired amount of 40% glucose stock solution was fed based on glucose measurements.
To assess if this reduction in MGO modification in the test conditions also corresponded to lower glucose consumption, the specific glucose consumption rate was calculated across the two phases of culture: average over day 0-day 5 and average over day 5-10 (period post temperature shift) (FIG. 4b). The specific glucose consumption rate in the conditions with 2DDG supplementation was lower in both phases. […] In the period post the temperature shift, up to 50% reduction in specific glucose consumption rate relative to that in the control was observed. Thus, a clear correlation has been observed between reduced glucose consumption and the extent of MGO modification of the peptides.
To further assess the applicability of this strategy, the cumulative glucose consumption levels were also evaluated for these conditions in this study (FIG. 6b). This was calculated by using daily glucose concentration measurements via the offline analyzer and by accounting for glucose feeds when added. […]

[2] = tested on: adalimumab producing cell line 2; assay: Extracellular MGO measurement in cell culture supernatant, cell line 2; format: cell-based; settings: Example 4; for MGO concentration level: 0.15 g/l 2DDG
Procedure: About 20 ml of cell free supernatant were collected in some cases for measurement of extracellular MGO in the supernatant. For this, a 3,000 RPM 30 min centrifugation was performed to remove the cells.
Remove protein: After quick thawing covered with aluminum, cell culture samples (10 mL) were filtrated by a 3 kDa or 10 kDa membrane filter (Millipore, UFC900369) until the solution left inside the filter was around 1 mL, the flow through that was used for MGO analysis.
Derivative MGO: 750 uL of flow through, 75 uL of 1 M NaH2PO4 buffer (pH 8), 50 mM 1,2 diaminobenzene (Aldrich P/N: P23938), and 600 uL of MilliQ water were mixed well and incubated at 60° C. for 3 hours. After cooling down and centrifuging at 10000 rpm for 3 minutes, the sample solution was ready to be injected.
External Standards to Quantitate MGO: external standards were used to quantitate MGO in cell culture. Based on the following table, the standard solutions were prepared. The standard solutions were incubated at 60° C. for 3 hours. After cooling down, the standard solutions were analyzed to get an external standard curve. The concentration of MGO in culture was calculated based on the external standard curve. (MGO: CMP Biomedicals, P/N: 155558; GO: Fisher Scientifics, P/N: S25698). 10 mM and 1 mM MGO were diluted from the MGO and 1000 uM and 10 uM GO were diluted from the GO. The diluent was water.
HPLC Method: A reverse phase HPLC method was used for MGO analysis. The parameters are listed in the method information table and gradient table below.
The measured concentration based on external quantitation multiplied by two is the final MGO concentration.
The objective of this experiment was to further evaluate the control of MGO synthesis/MGO protein modification through reduced glucose consumption in a different cell line, Cell line 2. There were two parts to this experiment. In one part, different levels of 2DDG were supplemented (0.05 g/l, 0.15 g/l) similar to the experimental design in Example 2. Prior to this experiment, a study was performed in shake flask culture to evaluate the dose effect of 2DDG on this cell line (data not shown). In the other part, different glucose profiles were maintained in the culture through the feedback control of glucose feed amounts. […] As described in Example 3, extracellular MGO quantification was performed for day 7, 8 and 9 for the samples below and percentage of acidic species were quantified using WCX-10 analysis post protein A of cell culture harvests.
The cells were grown to maximum viable cell densities (VCD) in the range of 10-12×10^6 cells/ml for the different conditions tested. […] Samples were then subsequently analyzed using Lys-C peptide mapping for quantification of MGO modification post protein A purification. […]

SMILES: O=CC[C@@H](O)[C@H](O)[C@H](O)CO [Test 2DDG, 2-Deoxy-D-Glucose]
- specific glucose consumption rate ([1]; Example 2, 2DDG 0.25 g/l, day 0-day 5 and day 5-10, versus control): lower
- glucose consumption ([1]; Example 3, 2DDG supplementation 0.25 g/l): significant reduction
- MGO concentration profile ([2]; 0.05 g/l 2DDG, versus control): No significant difference
- MGO concentration level ([2]; day 7, control 28 μM): 14 µM
- MGO concentration level ([2]; day 8, control 64 μM): 16 µM
- MGO concentration level ([2]; day not printed (third value, after day 7 and day 8), control 157 μM (day 9)): 20 µM
